How the values were obtained:
[1] = Evaluation of pharmacokinetic parameters for Vardenafil evaluated following single oral administration of Vardenafil to healthy male volunteers.; type: ADME, organism-based; details: human, in vivo, dose 20 mg, dosed compound id 28, dosed compound name VARDENAFIL HYDROCHLORIDE, gender male, regimen Single dose, tissue Plasma
[2] = test system: Homo sapiens; assay: Mean steady-state volume of distribution (Vss) for Vardenafil following oral doses of Vardenafil.; type: ADME, organism-based; details: in vivo, dose 20 mg, dosed compound id 28, dosed compound name VARDENAFIL HYDROCHLORIDE, gender male, regimen Multiple dose, tissue Plasma

In the case of `CCCc1nc(C)c2c(=O)nc(-c3cc(S(=O)(=O)N4CCN(CC)CC4)ccc3OCC)[nH]n12.Cl` [VARDENAFIL HYDROCHLORIDE], the Tmax ([1]; dietary status Fasting) is reported as 0.5 to 2 h, the half-life [1] is reported as 4 to 5 h and the Vss [2] is reported as 208 L.
